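Interpolation was linear, between the two tested concentrations surrounding the appropriate level; five concentrations were tested over 48 hours in 96-well plates. Here, GI50 denotes the concentration required for 50% inhibition of growth. At the TGI there is no net growth.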
Experiments:
Test in all cases: NCI anticancer screen, dose series, 48 h
786-0 renal = test system: 786-0 renal
A498 renal = test system: A498 renal
A549 NSCLC = test system: A549 NSCLC
ACHN renal = test system: ACHN renal
BT-549 breast = test system: BT-549 breast
CAKI-1 renal = test system: CAKI-1 renal
CCRF-CEM leukemia = test system: CCRF-CEM leukemia
COLO 205 colon = test system: COLO 205 colon
DU-145 prostate = test system: DU-145 prostate
EKVX NSCLC = test system: EKVX NSCLC
HCC-2998 colon = test system: HCC-2998 colon
HCT-116 colon = test system: HCT-116 colon
HCT-15 colon = test system: HCT-15 colon
HL-60(TB) leukemia = test system: HL-60(TB) leukemia
HOP-62 NSCLC = test system: HOP-62 NSCLC
HOP-92 NSCLC = test system: HOP-92 NSCLC
HS 578T breast = test system: HS 578T breast
HT29 colon = test system: HT29 colon
IGROV1 ovarian = test system: IGROV1 ovarian
K-562 leukemia = test system: K-562 leukemia
KM12 colon = test system: KM12 colon
LOX IMVI melanoma = test system: LOX IMVI melanoma
M14 melanoma = test system: M14 melanoma
MALME-3M melanoma = test system: MALME-3M melanoma
MCF7 breast = test system: MCF7 breast
MDA-MB-231 breast = test system: MDA-MB-231 breast
MDA-MB-435 = test system: MDA-MB-435
MOLT-4 leukemia = test system: MOLT-4 leukemia
NCI-H226 lung = test system: NCI-H226 lung

**Q.** How did the GI50 (786-0 renal) turn out when `CCOC(=O)CNC(=O)c1ccccc1Nc1ccnc(C(F)(F)F)c1` was run?
**A.** 52.6 µM

**Q.** And the TGI (786-0 renal)?
**A.** > 90 µM

**Q.** And the GI50 (A498 renal)?
**A.** 64 µM

**Q.** What about the TGI (A498 renal) of the same compound?
**A.** > 100 µM

**Q.** What about the GI50 (A549 NSCLC) of the same compound?
**A.** > 53.5 µM

**Q.** And the TGI (A549 NSCLC)?
**A.** > 100 µM

**Q.** What about the GI50 (ACHN renal) of the same compound?
**A.** > 58.2 µM

**Q.** And the TGI (ACHN renal)?
**A.** > 100 µM

**Q.** What about the GI50 (BT-549 breast) of the same compound?
**A.** 42 µM

**Q.** What about the TGI (BT-549 breast) of the same compound?
**A.** > 100 µM

**Q.** What about the GI50 (CAKI-1 renal) of the same compound?
**A.** 20.9 µM

**Q.** And the TGI (CAKI-1 renal)?
**A.** > 62.5 µM

**Q.** What about the GI50 (CCRF-CEM leukemia) of the same compound?
**A.** 7.97 µM

**Q.** What about the TGI (CCRF-CEM leukemia) of the same compound?
**A.** > 37.9 µM

**Q.** What about the GI50 (COLO 205 colon) of the same compound?
**A.** 17.8 µM

**Q.** What about the TGI (COLO 205 colon) of the same compound?
**A.** > 67.2 µM

**Q.** What about the GI50 (DU-145 prostate) of the same compound?
**A.** 46.9 µM

**Q.** And the TGI (DU-145 prostate)?
**A.** 99.8 µM

**Q.** And the GI50 (EKVX NSCLC)?
**A.** 30.6 µM

**Q.** What about the TGI (EKVX NSCLC) of the same compound?
**A.** > 96 µM

**Q.** And the GI50 (HCC-2998 colon)?
**A.** 71.3 µM

**Q.** And the TGI (HCC-2998 colon)?
**A.** > 100 µM

**Q.** What about the GI50 (HCT-116 colon) of the same compound?
**A.** 30.5 µM

**Q.** And the TGI (HCT-116 colon)?
**A.** > 69.8 µM

**Q.** And the GI50 (HCT-15 colon)?
**A.** > 54.6 µM

**Q.** And the TGI (HCT-15 colon)?
**A.** > 100 µM

**Q.** And the GI50 (HL-60(TB) leukemia)?
**A.** 33.2 µM

**Q.** What about the TGI (HL-60(TB) leukemia) of the same compound?
**A.** > 100 µM

**Q.** And the GI50 (HOP-62 NSCLC)?
**A.** 39.6 µM

**Q.** What about the TGI (HOP-62 NSCLC) of the same compound?
**A.** > 69.6 µM

**Q.** And the GI50 (HOP-92 NSCLC)?
**A.** 0.0572 µM

**Q.** What about the TGI (HOP-92 NSCLC) of the same compound?
**A.** 7.62 µM

**Q.** What about the GI50 (HS 578T breast) of the same compound?
**A.** 45.5 µM

**Q.** What about the TGI (HS 578T breast) of the same compound?
**A.** > 100 µM

**Q.** What about the GI50 (HT29 colon) of the same compound?
**A.** 44.4 µM

**Q.** What about the TGI (HT29 colon) of the same compound?
**A.** > 100 µM

**Q.** What about the GI50 (IGROV1 ovarian) of the same compound?
**A.** 32.2 µM

**Q.** And the TGI (IGROV1 ovarian)?
**A.** > 65.7 µM

**Q.** What about the GI50 (K-562 leukemia) of the same compound?
**A.** 24 µM

**Q.** What about the TGI (K-562 leukemia) of the same compound?
**A.** > 69.4 µM

**Q.** What about the GI50 (KM12 colon) of the same compound?
**A.** 30.2 µM

**Q.** And the TGI (KM12 colon)?
**A.** > 86 µM

**Q.** What about the GI50 (LOX IMVI melanoma) of the same compound?
**A.** 17.5 µM

**Q.** What about the TGI (LOX IMVI melanoma) of the same compound?
**A.** 36.2 µM

**Q.** And the GI50 (M14 melanoma)?
**A.** 38.1 µM

**Q.** What about the TGI (M14 melanoma) of the same compound?
**A.** > 74.9 µM

**Q.** What about the GI50 (MALME-3M melanoma) of the same compound?
**A.** 34.1 µM

**Q.** What about the TGI (MALME-3M melanoma) of the same compound?
**A.** > 88.8 µM

**Q.** And the GI50 (MCF7 breast)?
**A.** 38.8 µM

**Q.** What about the TGI (MCF7 breast) of the same compound?
**A.** > 89.1 µM

**Q.** What about the GI50 (MDA-MB-231 breast) of the same compound?
**A.** 33.4 µM

**Q.** What about the TGI (MDA-MB-231 breast) of the same compound?
**A.** > 73.1 µM

**Q.** And the GI50 (MDA-MB-435)?
**A.** 36.9 µM

**Q.** What about the TGI (MDA-MB-435) of the same compound?
**A.** > 100 µM

**Q.** And the GI50 (MOLT-4 leukemia)?
**A.** 17.7 µM

**Q.** What about the TGI (MOLT-4 leukemia) of the same compound?
**A.** 54.3 µM

**Q.** And the GI50 (NCI-H226 lung)?
**A.** > 100 µM

**Q.** What about the TGI (NCI-H226 lung) of the same compound?
**A.** > 100 µM

— PubChem BioAssay (NCI)
